Test results published in patent US5808139A (Ligand Pharmaceuticals Incorporated, priority 1994, dated 1998).

Experiments:
[1] = test system: progesterone receptor (T47D cells); experiment: Antagonist assay in T47D (human breast cancer) cells (Tables 1 and 2); type: cell-based; details: for Efficacy (% maximal response relative to RU-486), T47D cells: antagonist activity; for IC50: concentration required to reduce the maximal response by 50%, read-out: Potency (IC50), T47D cells
From the text: The functional activities of the cyclocymopol analogues in the human breast cell line, T47D, were also investigated. T47D cells have proven to be a particularly useful model to investigate the molecular actions of sex steroids because they contain endogenous functional receptors for, and respond to, progestins, and their respective antagonists. […] In T47D cells, progestins induce de novo synthesis of a plasma-associated alkaline phosphatase, which has been reported to be similar, if not identical, to the alkaline phosphatase present in the normal breast and human milk. These tests were conducted according to the following illustrative example.
The assay was also run using T47D (human breast cancer) cells.

[2] = target: T1, human progesterone receptor (Homo sapiens, UniProt P06401); experiment: Progesterone receptor binding (displacement of 3H-progesterone, whole cell extract of transfected CV-1 cells); set-up: expressed in transfected cells; host or cells: CV-1 cells (calcium phosphate transfection), whole cell extract
T1 sequence (P06401 1-933): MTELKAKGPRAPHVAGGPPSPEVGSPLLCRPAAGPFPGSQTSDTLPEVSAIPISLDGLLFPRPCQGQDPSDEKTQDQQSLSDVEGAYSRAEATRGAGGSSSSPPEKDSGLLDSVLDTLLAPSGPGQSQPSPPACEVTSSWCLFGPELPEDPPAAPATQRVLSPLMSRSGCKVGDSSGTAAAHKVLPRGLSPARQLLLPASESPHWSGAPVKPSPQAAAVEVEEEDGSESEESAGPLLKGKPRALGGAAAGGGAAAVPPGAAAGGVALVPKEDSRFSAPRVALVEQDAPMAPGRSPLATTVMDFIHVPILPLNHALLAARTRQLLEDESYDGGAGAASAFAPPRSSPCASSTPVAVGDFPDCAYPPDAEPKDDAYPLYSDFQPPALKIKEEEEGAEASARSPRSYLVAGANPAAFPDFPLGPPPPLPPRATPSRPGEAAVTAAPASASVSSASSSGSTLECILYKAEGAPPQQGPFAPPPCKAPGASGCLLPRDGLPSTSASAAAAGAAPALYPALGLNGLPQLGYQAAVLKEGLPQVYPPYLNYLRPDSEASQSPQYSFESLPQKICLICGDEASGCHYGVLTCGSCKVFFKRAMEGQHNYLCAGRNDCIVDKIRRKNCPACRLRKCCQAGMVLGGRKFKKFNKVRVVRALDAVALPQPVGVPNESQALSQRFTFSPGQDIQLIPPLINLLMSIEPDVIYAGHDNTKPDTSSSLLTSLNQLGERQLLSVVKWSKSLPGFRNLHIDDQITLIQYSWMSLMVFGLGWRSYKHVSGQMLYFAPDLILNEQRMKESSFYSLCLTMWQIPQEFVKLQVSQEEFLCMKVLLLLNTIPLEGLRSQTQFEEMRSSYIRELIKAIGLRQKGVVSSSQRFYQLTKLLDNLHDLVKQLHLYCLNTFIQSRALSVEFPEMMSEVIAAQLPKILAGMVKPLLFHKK
Protocol: These tests were conducted according to the following illustrative example.
CO2 for 40 hours prior to harvest.
After incubation, cells were harvested and washed in phosphate buffered saline. Whole cell receptor extract was prepared by homogenizing the harvested cells in Tris-HCl buffer, pH=7.4, containing 30% glycerol, 1 mM EDTA, 12 mM monothioglycerol, 1 mM PMSF, and 0.5M potassium chloride. The homogenate was incubated at 4° C. for 60 min with resuspension every 10 min. The suspension was centrifuged (105,000×g, 60 min) and the supernatant was collected and flash frozen in liquid nitrogen and stored frozen at -70° C.
To a […] final volume incubation mixture, […] of 7.5% (w/v) dextran-coated charcoal suspension in gelatin phosphate buffer was added. The mixture was vortexed and incubated at 4° C. for 10 min and then centrifuged at 3000 rpm for 10 min. The amount of bound tritiated hormone was determined by liquid scintillation spectrophotometry of an aliquot of the supernatant. […]

[3] = test system: human progesterone receptor altered at the Tau-1 location; experiment: Co-transfection assay in CV-1 cells, progesterone receptor altered at Tau-1, antagonist activity; type: cell-based; details: for Efficacy (% maximal response relative to RU-486), CV-1 cells: antagonist activity; for IC50: concentration required to reduce the maximal response by 50%, read-out: Potency (IC50), CV-1 cells
From the text: This assay is described in further detail in U.S. Pat. Nos. 4,981,784 and 5,071,773, which are incorporated herein by reference. The co-transfection assay provides a method for identifying functional ligands (either agonists which mimic, or antagonists which inhibit, the effect of hormones) for ligand-responsive receptor proteins.
The co-transfection assay provides a mechanism to evaluate ability of a compound to function as an agonist or antagonist of the activity modulated by an intracellular receptor. The co-transfection assay mimics an in vivo system in the laboratory. In the co-transfection assay, a cloned gene for an intracellular receptor is introduced by transfection (a procedure to induce cells to take up foreign genes) into a background cell substantially devoid of endogenous intracellular receptors. This introduced gene directs the recipient cells to make the intracellular receptor protein. A second gene is also introduced (co-transfected) into the same cells in conjunction with the intracellular receptor gene. This second gene functions as a reporter for the transcription-modulating activity of the target intracellular receptor. The reporter acts as a surrogate for the products normally expressed by a gene under control of the target receptor and its natural hormone.
A preferred reporter gene is one which expresses the firefly enzyme luciferase. The co-transfection assay can detect small molecule agonists or antagonists of target intracellular receptors. Exposing the cells to an agonist ligand increases reporter activity in the transfected cells that can be conveniently measured, reflecting ligand-dependent, intracellular receptor-mediated increases in reporter transcription. To detect antagonists, the co-transfection assay is carried out in the presence of a constant concentration of an agonist known to induce a defined reporter signal. Increasing concentrations of a test antagonist will decrease the reporter signal. The co-transfection assay is therefore useful to detect both agonists and antagonists of specific intracellular receptors. It determines not only whether a compound interacts with a particular intracellular receptor, but also whether this interaction mimics (agonizes) or blocks (antagonizes) the effects of the natural regulatory molecules on target gene expression.
Co-transfected cells are exposed to a medium to which is added the potential ligand that is being evaluated. If the candidate ligand diffuses into the cell and binds to the receptor and the resulting complex functions as an agonist, it binds to the co-transfected reporter gene and initiates transcription. When that gene is one that expresses, for example, luciferase, luciferase is produced which catalyzes a light-emitting reaction with its substrate luciferin. Thus, after cell lysis and the introduction of luciferin, the amount of light produced relative to the concentration of candidate ligand used in the assay provides a measure of the potency and efficacy of the compound tested. Antagonist activity is evaluated by adding the candidate ligand and a known agonist to the co-transfected cells.
The receptor cDNA was introduced in a mammalian expression vector under the control of the Rous Sarcoma virus LTR. […] A reporter vector was also transfected, containing a firefly luciferase gene under the control of the hormone-responsive promoter. […] The level of luciferase activity was then measured in cell extracts. Light emission is directly proportional to the effectiveness of the hormone-receptor complex in activating gene expression.
A total of three replicates per concentration point were tested for each compound, and the EC50 was calculated for each positive response. Both agonist and antagonist activity for each test compound was determined in parallel. […]

IC50 [1] [nM] | Kd [2] [nM] | IC50 [3] [nM] | SMILES | Efficacy (% maximal response relative to RU-486), T47D cells [1] [%] | Efficacy (% maximal response relative to RU-486), CV-1 cells [3] [%]
380 | 362 | 2900 | C=C1C[C@H](CCC2OCCO2)CC(C)(C)[C@@H]1Cc1cc(OC)c(Br)cc1O (relative stereo) [W, cis-1-Methylidene-2-(2'-hydroxy-4'-bromo-5'-methoxyphenyl)methyl-3,3-dimethyl-5-(propanal-1,3-dioxolane)cyclohexane] | 85 | 85
210 | 384 | 1100 | C=C1C[C@H](CCCO)CC(C)(C)[C@@H]1Cc1cc(OC)c(Br)cc1O (relative stereo) [X, cis-1-Methylidene-2-(2'-hydroxy-4'-bromo-5'-methoxyphenyl)methyl-3,3-dimethyl-5-(3-hydroxypropyl)cyclohexane] | 84 | 99
85 | 35 | 400 | C=C1CCCC(C)(C)C1Cc1cc(OC)c(Br)cc1OC(C)=O (stereo in doubt) [B, (3S)-1-Debromocyclocymopol monomethyl ether, acetate] | 65 | 45
150 | 50 | 450 | C=C1CCCC(C)(C)C1Cc1cc(OC)c(Br)cc1OC(=O)OC (stereo in doubt) [Compound D, (3S)-1-Debromocyclocymopol monomethyl ether, methyl carbonate] | 55 | 45
250 | 230 | 1220 | C=C1CCCC(C)(C)C1Cc1cc(OC)c(Br)cc1OC(=O)OC (stereo in doubt) [R, (3R)-1-Debromocyclocymopol monomethyl ether, methyl carbonate] | 85 | 95
300 | 190 | 1600 | C=C1CCCC(C)(C)C1Cc1cc(OC)c(Br)cc1OC(=O)c1ccccc1 (stereo in doubt) [U, (3R)-1-Debromocyclocymopol monomethyl ether, benzoate] | 80 | 95
400 | 345 | 1500 | C=C1CCCCC1Cc1cc(OC)c(Br)cc1O (stereo not shown) [Compound S, 1-Methylidene-2-(2'-hydroxy-4'-bromo-5'-methoxyphenyl)methylcyclohexane] | 85 | 90
475 | 925 | 450 | C=C1[C@H](O)C[C@@H](Br)C(C)(C)[C@@H]1Cc1cc(OC)c(Br)cc1O [E, (3R,5R)-5-Hydroxycyclocymopol monomethyl ether] | 85 | 85
200 | 925 | 550 | O=C1CCCCC1Cc1ccc([N+](=O)[O-])cc1 (stereo not shown) [F, 2-(4'-Nitrophenyl)methylcyclohexan-1-one] | 80 | 100
350 | 75 | 875 | C=C1C=CCC(C)(C)C1Cc1ccc([N+](=O)[O-])c(C)c1 (stereo not shown) [M, 1-Methylidene-6-(3'-methyl-4'-nitrophenyl)methyl-5,5-dimethylcyclohex-2-ene] | 80 | 90
390 | 10000 | 1770 | CC1(C)CC=CC(=O)C1Cc1ccc([N+](=O)[O-])cc1 (stereo not shown) [MM, 6-(4'-Nitrophenyl)methyl-5.5-dimethylcyclohex-2-en-1-one] | 90 | 74

SMILES | IC50 [1] [nM] | Kd [2] [nM] | IC50 [3] [nM] | Efficacy (% maximal response relative to RU-486), T47D cells [1] [%] | Efficacy (% maximal response relative to RU-486), CV-1 cells [3] [%]
COc1cc(CC2C(C)(C)CC(C)=CC23CC3)c(OC(C)=O)cc1Br (stereo not shown) [DD, 8-(2'-Acetoxy-4'-bromo-5'-methoxyphenyl)methyl-5,7,7-trimethylspiro[2.5]oct-4-ene] | 440 | 104 | 160 | 68 | 26
C=C1C=C(C)CC(C)(C)C1Cc1cc(OC)c(Br)cc1OC(C)=O (stereo not shown) [H, 1-Methylidene-6-(2'-acetoxy-4'-bromo-5'-methoxyphenyl)methyl-3,5,5-trimethylcyclohex-2-ene] | 775 | 60 | 700 | 60 | 40
C=C1C=CCC(C)(C)C1Cc1cc(OC)c(Br)cc1OC(C)=O (stereo not shown) [L, 1-Methylidene-6-(2'-acetoxy-4'-bromo-5'-methoxyphenyl)methyl-5,5-dimethylcyclohex-2-ene] | 200 | 90 | 825 | 75 | 55
